Where a SMILES comes first, the peptide text is derived from it. Bridges are numbered along the chain shown (N, C = ends). [ ]: non-standard residue; d: D form. R8 = C=CCCCCCC[C@@](C)(N)C(=O)O; Cba = N[C@@H](CC1CCC1)C(=O)O; S5 = C=CCCC[C@](C)(N)C(=O)O

For one test, the target named is T1, MDM2 (1-125) (Homo sapiens, UniProt Q00987).
T1 construct: Purified MDM2 (1-125) protein was titrated against
Briefly: Mdm2 competitive fluorescence anisotropy assay. It is filed as binding. The settings on record: read-out: Experimental MDM2 Kd. As to the method:
Mdm2 Competitive Fluorescence Anisotropy Assay and Kd Determination Purified MDM2 (1-125) protein was titrated against 50 nM carboxyfluorescein (FAM)-labeled 12/1 peptide (FAM-[…]-NH2). […] (4) r=r0+(rb−r0)((Kd+[L]t+[P]t)−(Kd+[L]t+[P]t)^2−4[L]t[P]t/2[L]t)
[P] is the protein concentration (MDM2), [L] is the labeled peptide concentration, r is the anisotropy measured, ro is the anisotropy of the free peptide, rb is the anisotropy of the MDM2–FAM-labeled peptide complex, Kd is the dissociation constant, [L]t is the total FAM-labeled peptide concentration, and [P]t is the total MDM2 concentration.
Apparent Kd values were determined for a variety of molecules via competitive fluorescence anisotropy experiments. Titrations were carried out with the concentration of MDM2 held constant at 250 nM and the labeled peptide at 50 nM. The competing molecules were then titrated against the complex of the FAM-labeled peptide and protein. Apparent Kd values were determined by fitting the experimental data to the equations shown below: [58, 59]. […]
[L]st and [L]t denote labeled ligand and total unlabeled ligand input concentrations, respectively. […] Kd1 is the apparent Kd for the labeled peptide used in the respective experiment, which has been experimentally determined as described in the previous paragraph. […] Readings were carried out with an Envision Multilabel Reader (PerkinElmer). […]
(Polarisation of emitted light reports the rotation of a fluorescent probe.)

The target in another test is T2, MDMX (Homo sapiens, UniProt O15151).
T2 sequence (O15151 1-490): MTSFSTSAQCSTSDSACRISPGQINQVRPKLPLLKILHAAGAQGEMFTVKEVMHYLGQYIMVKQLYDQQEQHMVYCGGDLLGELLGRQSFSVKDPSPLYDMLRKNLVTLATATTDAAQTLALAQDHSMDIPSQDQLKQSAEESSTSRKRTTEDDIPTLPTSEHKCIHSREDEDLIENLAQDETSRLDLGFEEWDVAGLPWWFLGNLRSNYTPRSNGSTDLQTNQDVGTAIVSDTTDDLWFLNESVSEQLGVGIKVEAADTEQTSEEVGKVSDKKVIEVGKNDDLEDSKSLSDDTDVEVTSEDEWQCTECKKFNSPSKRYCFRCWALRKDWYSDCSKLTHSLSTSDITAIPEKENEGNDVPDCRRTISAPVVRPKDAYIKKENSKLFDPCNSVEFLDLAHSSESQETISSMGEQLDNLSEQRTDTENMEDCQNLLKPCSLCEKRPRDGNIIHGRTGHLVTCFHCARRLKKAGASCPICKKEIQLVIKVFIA
Nature of the test: Experimental MDMX binding (Table 4). An excerpt: Table 4 Prospective Testing Data. | column: Experimental MDMX / Kd (nM); Experimental MDMX / ΔΔG (kcal)

T1 sequence (Q00987 1-125): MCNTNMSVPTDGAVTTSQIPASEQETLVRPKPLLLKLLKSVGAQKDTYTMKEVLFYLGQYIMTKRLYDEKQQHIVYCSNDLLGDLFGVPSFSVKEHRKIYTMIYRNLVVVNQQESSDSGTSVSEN

As to `CC(=O)N[C@@H](CC(C)C)C(=O)N[C@H](C(=O)N[C@@H](Cc1ccccc1)C(=O)N[C@]1(C)CCCCCCC=CCCC[C@@](C)(C(=O)N[C@@H](CO)C(=O)N[C@@H](C)C(=O)N[C@@H](C)C(N)=O)NC(=O)[C@H](CC2CCC2)NC(=O)[C@H](CC(C)C)NC(=O)[C@H](CCC(N)=O)NC(=O)[C@H](Cc2c[nH]c3ccccc23)NC(=O)[C@H](C)NC(=O)[C@H](CCC(=O)O)NC1=O)[C@@H](C)O` [Y6A] (Ac-LTF[R8]EAWQL[Cba][S5]SAA-NH2; staple 4-11), the Kd (commonly the constant that tells how readily two partners part at equilibrium) at MDM2 (1-125) stood at 51.5 nM; on MDMX, 130 nM. For the compound `CC(=O)N[C@@H](CC(C)C)C(=O)N[C@H](C(=O)N[C@@H](Cc1ccccc1)C(=O)N[C@]1(C)CCCCCCC=CCCC[C@@](C)(C(=O)N[C@@H](CO)C(=O)N[C@@H](C)C(=O)N[C@@H](C)C(N)=O)NC(=O)[C@H](CC2CCC2)NC(=O)[C@H](CC(C)C)NC(=O)[C@H](CCC(N)=O)NC(=O)[C@H](Cc2c[nH]c3ccccc23)NC(=O)[C@H](Cc2ccc(O)cc2)NC(=O)[C@H](CCC(=O)O)NC1=O)[C@@H](C)O` [WT], binding at MDMX was characterised by a dissociation constant (Kd) of 12.5 nM. For the compound `CC(=O)N[C@@H](CC(C)C)C(=O)N[C@H](C(=O)N[C@@H](Cc1ccccc1)C(=O)N[C@]1(C)CCCCCCC=CCCC[C@@](C)(C(=O)N[C@@H](CO)C(=O)N[C@@H](C)C(=O)N[C@@H](C)C(N)=O)NC(=O)[C@H](CC2CCC2)NC(=O)[C@H](CC(C)C)NC(=O)[C@H](CCC(N)=O)NC(=O)[C@H](Cc2c[nH]c3ccccc23)NC(=O)[C@@H](Cc2ccc(O)cc2)NC(=O)[C@H](CCC(=O)O)NC1=O)[C@@H](C)O` [Y6dY], the Kd on MDM2 (1-125) worked out at 365 nM; on MDMX, 921 nM.

For the origin of these results see paper PMC6943714, “Rigorous Computational and Experimental Investigations on MDM2/MDMX-Targeted Linear and Macrocyclic Peptides” (Molecules, 2019).
